pIC50: −log10 of the molar value.
Molecular target: Human DGAT2 (Homo sapiens (Human), UniProt Q96PD7)
Test: DGAT2 Enzymatic Activity Assay (triolein formation, LC/MS/MS)
Type: biochemical
Conditions: hDGAT2 Sf-9 membrane prep; 25 μM diolein, 10 μM oleoyl-CoA; room temperature
Summary of the method: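 Membranes from Sf-9 cells infected with untagged hDGAT2 baculovirus, 10 ng/μL, at room temperature in 100 mM Tris.Cl pH 7.0, 20 mM MgCl2, 5% ethanol with 25 μM diolein and 10 μM oleoyl-CoA. Triolein quantified by LC/MS/MS against spiked internal standard; IC50 from 4-parameter sigmoidal fit.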

Human DGAT2, sequence (Q96PD7 whole entry): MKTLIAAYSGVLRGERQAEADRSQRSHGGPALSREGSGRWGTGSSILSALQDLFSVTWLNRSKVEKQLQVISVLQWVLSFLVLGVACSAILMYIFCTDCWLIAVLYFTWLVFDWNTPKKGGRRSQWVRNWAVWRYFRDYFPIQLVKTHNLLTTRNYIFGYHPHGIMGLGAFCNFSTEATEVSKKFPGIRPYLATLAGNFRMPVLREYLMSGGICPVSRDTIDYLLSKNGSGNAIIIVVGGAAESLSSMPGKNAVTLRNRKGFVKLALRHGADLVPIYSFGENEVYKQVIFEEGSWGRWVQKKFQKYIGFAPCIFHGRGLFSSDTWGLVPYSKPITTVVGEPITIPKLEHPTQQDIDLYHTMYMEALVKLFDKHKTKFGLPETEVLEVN

Row | pIC50 | Compound
1 | 6.30 | CSCC[C@@H](CO)NC(=O)c1ccc2c(-c3ccccc3Cl)nn(-c3ccc(F)cc3)c2c1 [Example 93, 3-(2-chlorophenyl)-1-(4-fluorophenyl)-N-[(1S)-1-(hydroxymethyl)-3-(methylsulfanyl)propyl]-1H-indazole-6-carboxamide]
2 | 6.11 | O=C(N[C@@H]1CCC[C@H]1O)c1ccc2c(-c3ccccc3Cl)nn(-c3ccc(F)cc3)c2c1 [Example 94, 3-(2-chlorophenyl)-1-(4-fluorophenyl)-N-[(1R,2R)-2-hydroxycyclopentyl]-1H-indazole-6-carboxamide]
3 | 6.22 | CC(C)[C@H](NC(=O)c1ccc2c(-c3ccccc3Cl)nn(-c3ccc(F)cc3)c2c1)C(N)=O [Example 95, N-[(1S)-1-carbamoyl-2-methylpropyl]-3-(2-chlorophenyl)-1-(4-fluorophenyl)-1H-indazole-6-carboxamide]
4 | 7.37 | O=C(N[C@H]1CCC[C@H]1O)c1ccc2c(-c3ccccc3Cl)nn(-c3ccc(F)cc3)c2c1 [Example 96, 3-(2-chlorophenyl)-1-(4-fluorophenyl)-N-[(1S,2R)-2-hydroxycyclopentyl]-1H-indazole-6-carboxamide]
5 | 6.81 | O=C(N[C@H]1CCC[C@@H]1O)c1ccc2c(-c3ccccc3Cl)nn(-c3ccc(F)cc3)c2c1 [Example 97, 3-(2-chlorophenyl)-1-(4-fluorophenyl)-N-[(1S,2S)-2-hydroxycyclopentyl]-1H-indazole-6-carboxamide]
6 | 8.21 | CC(C)(C)[C@@H](CO)NC(=O)c1ccc2c(-c3ccccc3Cl)nn(-c3ccc(F)cc3)c2c1 [Example 99, 3-(2-chlorophenyl)-1-(4-fluorophenyl)-N-[(1S)-1-(hydroxymethyl)-2,2-dimethylpropyl]-1H-indazole-6-carboxamide]
7 | 7.92 | CC(C)(C)OC(=O)N1CC[C@H](NC(=O)c2ccc3c(-c4ccccc4Cl)nn(-c4ccc(F)cc4)c3c2)C1 [Example 100, tert-butyl (3S)-3-({[3-(2-chlorophenyl)-1-(4-fluorophenyl)-1H-indazol-6-yl]carbonyl}amino)pyrrolidine-1-carboxylate]
8 | 6.87 | CC(C)(C)OC(=O)N1CC[C@@H](NC(=O)c2ccc3c(-c4ccccc4Cl)nn(-c4ccc(F)cc4)c3c2)C1 [Example 101, tert-butyl (3R)-3-({[3-(2-chlorophenyl)-1-(4-fluorophenyl)-1H-indazol-6-yl]carbonyl}amino)pyrrolidine-1-carboxylate]
9 | 7.51 | CC[C@H](C)[C@@H](CO)NC(=O)c1ccc2c(-c3ccccc3Cl)nn(-c3ccc(F)cc3)c2c1 [Example 103, 3-(2-chlorophenyl)-1-(4-fluorophenyl)-N-[(1S,2S)-1-(hydroxymethyl)-2-methylbutyl]-1H-indazole-6-carboxamide]
10 | 6.74 | O=C1CC(NC(=O)c2ccc3c(-c4ccccc4Cl)nn(-c4ccc(F)cc4)c3c2)C1 [Example 104, 3-(2-chlorophenyl)-1-(4-fluorophenyl)-N-(3-oxocyclobutyl)-1H-indazole-6-carboxamide]
11 | 6.86 | N#CC1(NC(=O)c2ccc3c(-c4ccccc4Cl)nn(-c4ccc(F)cc4)c3c2)CC1 [Example 105, 3-(2-chlorophenyl)-N-(1-cyanocyclopropyl)-1-(4-fluorophenyl)-1H-indazole-6-carboxamide]
12 | 6.08 | C[C@@H](NC(=O)c1ccc2c(-c3ccccc3Cl)nn(-c3ccc(F)cc3)c2c1)[C@@H](O)c1ccccc1 [Example 106, 3-(2-chlorophenyl)-1-(4-fluorophenyl)-N-[(1R,2S)-2-hydroxy-1-methyl-2-phenylethyl]-1H-indazole-6-carboxamide]
13 | 6.52 | C[C@@H](NC(=O)c1ccc2c(-c3ccccc3Cl)nn(-c3ccc(F)cc3)c2c1)[C@H](O)c1ccccc1 [Example 107, 3-(2-chlorophenyl)-1-(4-fluorophenyl)-N-[(1R,2R)-2-hydroxy-1-methyl-2-phenylethyl]-1H-indazole-6-carboxamide]
14 | 6.41 | O=C(NC1(c2ccc(Br)cc2)CC(O)C1)c1ccc2c(-c3ccccc3Cl)nn(-c3ccc(F)cc3)c2c1 (stereo not shown) [Example 108, N-[1-(4-bromophenyl)-3-hydroxycyclobutyl]-3-(2-chlorophenyl)-1-(4-fluorophenyl)-1H-indazole-6-carboxamide]
15 | 6.87 | O=C(N[C@H](CO)Cc1ccccc1)c1ccc2c(-c3ccccc3Cl)nn(-c3ccc(F)cc3)c2c1 [Example 110, N-[(1S)-1-benzyl-2-hydroxyethyl]-3-(2-chlorophenyl)-1-(4-fluorophenyl)-1H-indazole-6-carboxamide]
16 | 6.71 | CO[C@@H]1C[C@H](NC(=O)c2ccc3c(-c4ccccc4Cl)nn(-c4ccc(F)cc4)c3c2)[C@H](O)[C@H](C)O1 [Example 111, 3-(2-chlorophenyl)-1-(4-fluorophenyl)-N-((2S,3S,4S,6S)-3-hydroxy-6-methoxy-2-methyltetrahydro-2H-pyran-4-yl)-1H-indazole-6-carboxamide]
17 | 6.20 | O=C(NCC1(O)CC1)c1ccc2c(-c3ccccc3Cl)nn(-c3ccc(F)cc3)c2c1 [Example 114, 3-(2-chlorophenyl)-1-(4-fluorophenyl)-N-[(1-hydroxycyclopropyl)methyl]-1H-indazole-6-carboxamide]
18 | 6.24 | O=C(N[C@@H]1CCC[C@@H]1O)c1ccc2c(-c3ccccc3Cl)nn(-c3ccc(F)cc3)c2c1 [Example 115, 3-(2-chlorophenyl)-1-(4-fluorophenyl)-N-[(1R,2S)-2-hydroxycyclopentyl]-1H-indazole-6-carboxamide]
19 | 6.44 | N#Cc1cccc(-c2nn(-c3ccc(F)cc3)c3cc(C(=O)NC4CCS(=O)(=O)C4)ccc23)c1 (stereo not shown) [Example 116, 3-(3-cyanophenyl)-N-(1,1-dioxidotetrahydrothiophen-3-yl)-1-(4-fluorophenyl)-1H-indazole-6-carboxamide]
20 | 8.15 | CC1(NC(=O)c2ccc3c(-c4cccc(C#N)c4)nn(-c4ccc(F)cc4)c3c2)CCS(=O)(=O)C1 (stereo not shown) [Example 117, 3-(3-cyanophenyl)-1-(4-fluorophenyl)-N-(3-methyl-1,1-dioxidotetrahydrothiophen-3-yl)-1H-indazole-6-carboxamide]
21 | 8.26 | N#Cc1ccc(Cl)c(-c2nn(-c3ccc(F)cc3)c3cc(C(=O)NC4(CO)CCC4)ccc23)c1 [Example 118, 3-(2-chloro-5-cyanophenyl)-1-(4-fluorophenyl)-N-[1-(hydroxymethyl)cyclobutyl]-1H-indazole-6-carboxamide]
22 | 8.42 | CC(C)[C@@H](CO)NC(=O)c1ccc2c(-c3cc(C#N)ccc3Cl)nn(-c3ccc(F)cc3)c2c1 [Example 123, 3-(2-chloro-5-cyanophenyl)-1-(4-fluorophenyl)-N-[(1S)-1-(hydroxymethyl)-2-methylpropyl]-1H-indazole-6-carboxamide]
23 | 8.36 | CC(C)[C@@H](CO)NC(=O)c1ccc2c(-c3cccc(C4CC4)c3)nn(-c3ccc(F)cn3)c2c1 [Example 124, 3-(3-cyclopropylphenyl)-1-(5-fluoropyridin-2-yl)-N-[(1S)-1-(hydroxymethyl)-2-methylpropyl]-1H-indazole-6-carboxamide]
24 | 6.34 | O=C(NC1CCS(=O)(=O)C1)c1ccc2c(-c3ccccc3Cl)nn(Cc3ccc(Cl)cc3)c2c1 (stereo not shown) [Example 168, 1-(4-chlorobenzyl)-3-(2-chlorophenyl)-N-(1,1-dioxidotetrahydrothiophen-3-yl)-1H-indazole-6-carboxamide]
25 | 6.44 | CC(C)n1nc(-c2ccccc2Cl)c2ccc(C(=O)NC3CCS(=O)(=O)C3)cc21 (stereo not shown) [Example 169, 3-(2-chlorophenyl)-N-(1,1-dioxidotetrahydrothiophen-3-yl)-1-(1-methylethyl)-1H-indazole-6-carboxamide]
26 | 6.75 | O=C(NC1CCS(=O)(=O)C1)c1ccc2c(-c3ccccc3Cl)nn(Cc3ccc(F)cc3)c2c1 (stereo not shown) [Example 170, 3-(2-chlorophenyl)-N-(1,1-dioxidotetrahydrothiophen-3-yl)-1-(4-fluorobenzyl)-1H-indazole-6-carboxamide]
27 | 6.55 | CC1(NC(=O)c2ccc3c(-c4ccccc4Cl)nn(-c4cscn4)c3c2)CCS(=O)(=O)C1 (stereo not shown) [Example 179, 3-(2-Chlorophenyl)-N-(3-methyl-1,1-dioxidotetrahydrothiophen-3-yl)-1-(thiazol-4-yl)-1H-indazole-6-carboxamide]
28 | 6.74 | CC1(NC(=O)c2ccc3c(-c4ccccc4Cl)nn(C4CCCCO4)c3c2)CCS(=O)(=O)C1 (stereo not shown) [Example 191, 3-(2-Chlorophenyl)-N-(3-methyl-1,1-dioxidotetrahydrothiophen-3-yl)-1-(tetrahydro-2H-pyran-2-yl)-1H-indazole-6-carboxamide]
